Laboratory results from US10221171B2, “Oxathiazole thiazolium Hsp 70 inhibitors” (THE REGENTS OF THE UNIVERSITY OF CALIFORNIA, priority 2015, dated 2019).
Read-outs that look alike come from different tables or passages of the source.

Tests used:
[1] = Solubility; format: physicochemical
[2] = Microsomal stability; format: in vitro ADME
[3] = tested on: MCF-7; test: MTT cell viability assay, MCF-7; format: cell-based; conditions: for EC50: Table 2; for IC50: read-out: IC50/μM MCF-7
[4] = Tolerability in mice based on weight; format: in vivo; conditions: daily i.p. 5 mg/kg/day, male CD1 mice
Experimental: Analogs were delivered daily to male CD1 mice by i.p. at 5 mg/kg/day. Five mice per group. Error bars represent SEM.

[5] = tested on: Hsp70 clients in MCF7 cells; test: Western blot of Hsp70 clients in MCF7 cells; format: cell-based; conditions: 24 hrs
Experimental: Cells were treated for 24 hrs with compound, lysed and Western blots performed.

[6] = Pharmacokinetics in CD1 mice, single i.p. injection, plasma by HPLC; format: in vivo
Experimental: A single injection of compound was delivered to CD1 mice by i.p. and the plasma collected at the indicated times. Compound levels were calculated by HPLC, using a standard curve.

[7] = tested on: Xenografts of MCF7 cells; test: Hsp70 client destabilization in MCF7 xenografts, western blot; format: in vivo; conditions: 5 mg/kg/day for three days, western blot of tumors
Experimental: Xenografts of MCF7 cells were treated by delivery of compound in saline 5 mg/kg/day dosed for three days, after which tumors were harvested for western blot. Results from three separate animals are shown.

[8] = tested on: MDA-MB-231; test: MTT cell viability assay, MDA-MB-231; format: cell-based; conditions: Homo sapiens, MDA-MB-231, 72-hour incubation
[9] = tested on: multiple myeloma cell lines; test: MTT cell viability in multiple myeloma cell lines; format: cell-based; conditions: cell viability after 48 hrs, percentage of solvent control (1% DMSO)
From the text: Results are shown as a percentage of a solvent control (1% DMSO). Results are the average of experiments performed in triplicate. Error bars represent SEM.

[10] = tested on: MEF (C57BL/6); test: MTT cell viability assay, MEF (C57BL/6); format: cell-based; conditions: for IC50 / EC50: Mus musculus; for EC50: Table 2; for SI MEF/MCF-7: ratio of EC50 MEF to EC50 MCF-7
[11] = tested on: IMR-90; test: Cell viability, IMR-90; format: cell-based; conditions: for EC50: Homo sapiens, IMR-90, Table 2; for SI IMR-90/MCF-7: ratio of EC50 IMR-90 to EC50 MCF-7
Experimental: Cells were then treated with compound at various concentrations in 0.2 mL media. After the 72-hour incubation period, cells were washed in PBS (3×100 μL), and 10 μL MTT reagent was added with 100 μL fresh media. Cells were then incubated for 4 hr in a humidified chamber at 37° C. with 5% CO2. Insoluble formazan crystals were solubilized by addition of 0.1 mL detergent solution (4 hr at room temp., dark). Resulting colored solutions were then quantified at an absorbance of 570 nm.

[12] = MTT, 72-hour incubation, read-out: IC50/μM MEF (C57BL/6)
[13] = 72 h, read-out: IC50/μM MEF (C57BL/6), MTT, 72-hour incubation
[14] = Homo sapiens, MCF7, MTT, 72-hour incubation

## CCn1c(=O)/c(=C2\Sc3cc(Cl)ccc3N2C)s/c1=C\c1scc[n+]1Cc1ccc(Br)s1.[Cl-] [JG-231, reference compound]
[1]
  solubility: 16 µM
[2]
  Microsomal min: >60 min
[3]
  EC50: 0.12 ± 0.01 µM
[4]
  tolerated in mice, based on weight: tolerated in mice
[5]
  destabilization of Hsp70 clients (c-Raf and other clients): destabilize c-Raf and other clients

## CCc1ccc2c(c1)S/C(=c1/s/c(=C\c3scc[n+]3Cc3ccccc3C(=O)OC)n(CC)c1=O)N2C.[Cl-] [JG-345]
[6]
  t1/2/h: 11.4 h
[7]
  destabilization of Hsp70 clients in vivo: destabilized Hsp70 clients in vivo
[8]
  IC50: 0.046 ± 0.006 µM
[9]
  anti-proliferative activity against multiple myeloma cell lines: anti-proliferative activity
[10]; [12]
  IC50: 1 ± 0.1 µM
[10]
  EC50: 1 ± 0.1 µM
[2]
  Microsomal min: 25 min
[3]; Homo sapiens, MCF7, 72 h
  IC50: 0.049 ± 0.003 µM
[3]; Homo sapiens, MCF7
  EC50: 0.049 ± 0.003 µM
[4]
  tolerated in mice, based on weight: tolerated in mice
[11]
  EC50: 3.2 ± 0.7 µM
[5]
  destabilization of Hsp70 clients (c-Raf and other clients): destabilize c-Raf and other clients

## CCn1c(=O)/c(=C2\Sc3cc(Cl)ccc3N2C)s/c1=C\c1scc[n+]1Cc1ccccc1.[Cl-] [JG-98, reference compound]
[1]
  solubility: 31 µM
[2]
  Microsomal min: 37 min
[3]
  EC50: 0.71 ± 0.22 µM

## CCc1ccc2c(c1)S/C(=c1/s/c(=C\c3scc[n+]3Cc3ccc(C(F)(F)F)o3)n(CC)c1=O)N2C.[Cl-] [JG-300]
[8]
  IC50: 0.1 ± 0.01 µM
[10]; [13]
  IC50: 1.4 ± 0.06 µM
[10]
  EC50: 1.4 ± 0.1 µM
[2]
  Microsomal min: 37 min
[3]; Homo sapiens, MCF7, 72 h, MTT, 72-hour incubation
  IC50: 0.11 ± 0.01 µM
[3]; Homo sapiens, MCF7
  EC50: 0.11 ± 0.01 µM
[11]
  EC50: 3.3 ± 0.3 µM

## CCn1c(=O)/c(=C2\Sc3cc(Br)ccc3N2C)s/c1=C\c1scc[n+]1Cc1ccc(C(F)(F)F)o1.[Cl-] [JG-294]
[6]
  AUC0-∞/nM × h: 2.429 µM·h
[6]; mouse, ip
  Tmax: 2 h
[6]; mouse, ip, read-out: t1/2/h (converted)
  half-life: 29.8 h
[8]
  IC50: 0.18 ± 0.01 µM
[10]; [13]
  IC50: 3.5 ± 0.4 µM
[10]
  EC50: 3.5 ± 0.4 µM
[2]
  Microsomal min: >60 min
[3]; Homo sapiens, MCF7, 72 h
  IC50: 0.1 ± 0.01 µM
[3]; Homo sapiens, MCF7
  EC50: 0.1 ± 0.01 µM
[4]
  tolerated in mice, based on weight: tolerated in mice
[11]
  EC50: 9.8 ± 2 µM

## CCn1c(=O)/c(=C2\Sc3cc(SC)ccc3N2C)s/c1=C\c1scc[n+]1Cc1ccccc1OC(F)(F)F.[Cl-] [JG-311]
[1]
  solubility: 16 µM
[8]
  IC50: 0.14 ± 0.01 µM
[10]; [12]
  IC50: 2 ± 0.1 µM
[10]
  EC50: 2 ± 0.1 µM
  SI MEF/MCF-7: 20
[2]
  Microsomal min: 22 min
[3]; [14]
  IC50: 0.098 ± 0.009 µM
[3]; Homo sapiens, MCF7
  EC50: 0.098 ± 0.009 µM
[11]
  EC50: 3.5 ± 0.6 µM
  SI IMR-90/MCF-7: 35

## CCn1c(=O)/c(=C2\Sc3cc(SC)ccc3N2C)s/c1=C\c1scc[n+]1Cc1ccccc1SC(F)(F)F.[Cl-] [JG-356]
[1]
  solubility: 16 µM
[8]
  IC50: 0.09 ± 0.005 µM
[10]; [12]
  IC50: 1.9 ± 0.1 µM
[10]
  EC50: 1.9 ± 0.1 µM
  SI MEF/MCF-7: 21
[2]
  Microsomal min: 23 min
[3]; [14]
  IC50: 0.089 ± 0.006 µM
[3]; Homo sapiens, MCF7
  EC50: 0.089 ± 0.006 µM
[11]
  EC50: 1.5 ± 0.1 µM
  SI IMR-90/MCF-7: 16

## CCn1c(=O)/c(=C2\Sc3cc(SC)ccc3N2C)s/c1=C\c1scc[n+]1Cc1ccccc1C(F)(F)F.[Cl-] [JG-312]
[1]
  solubility: 16 µM
[8]
  IC50: 0.14 ± 0.01 µM
[10]; [12]
  IC50: 3.2 ± 0.2 µM
[10]
  EC50: 3.2 ± 0.2 µM
  SI MEF/MCF-7: 32
[2]
  Microsomal min: 23 min
[3]; [14]
  IC50: 0.1 ± 0.01 µM
[3]; Homo sapiens, MCF7
  EC50: 0.1 ± 0.01 µM
[11]
  EC50: > 10 µM
  SI IMR-90/MCF-7: >100

## CCn1c(=O)/c(=C2\Sc3ccc(OC)cc3N2C)s/c1=C\c1scc[n+]1Cc1ccccc1C(F)(F)F [JG-401]
[8]
  IC50: 0.11 ± 0.01 µM
[10]; [12]
  IC50: 0.27 ± 0.03 µM
[3]; [14]
  IC50: 0.45 ± 0.04 µM

## CCn1c(=O)/c(=C2\Sc3cc(Cl)ccc3N2C)s/c1=C\c1scc[n+]1Cc1ccc(Cl)cc1 [JG-256]
[8]
  IC50: 1.1 ± 0.1 µM
[10]; [12]
  IC50: 2.2 ± 0.1 µM
[3]; [14]
  IC50: 0.72 ± 0.06 µM

## CCn1c(=O)/c(=C2\Sc3cc(Cl)ccc3N2C)s/c1=C\c1scc[n+]1Cc1c(C)cccc1C [JG-333]
[8]
  IC50: 0.19 ± 0.02 µM
[10]; [12]
  IC50: 1.1 ± 0.1 µM
[3]; [14]
  IC50: 0.35 ± 0.04 µM

## CCn1c(=O)/c(=C2\Sc3cc(OC)ccc3N2C)s/c1=C\c1scc[n+]1Cc1ccccc1C [JG-302]
[8]
  IC50: 0.11 ± 0.01 µM
[10]; [12]
  IC50: 1.8 ± 0.05 µM
[3]; [14]
  IC50: 0.12 ± 0.01 µM

## CCn1c(=O)/c(=C2\Sc3cc(Br)ccc3N2C)s/c1=C\c1scc[n+]1C(C)c1ccccc1 (centres unmarked) [JG-317]
[8]
  IC50: 0.14 ± 0.02 µM
[10]; [12]
  IC50: 2.7 ± 0.1 µM
[3]; [14]
  IC50: 0.35 ± 0.08 µM

## CCn1c(=O)/c(=C2\Sc3cc(Cl)ccc3N2C)s/c1=C\c1scc[n+]1CCc1ccc(C(F)(F)F)cc1 [JG-387]
[8]
  IC50: 0.74 ± 0.04 µM
[10]; [12]
  IC50: > 10 µM
[3]; [14]
  IC50: 0.78 ± 0.09 µM

## CCn1c(=O)/c(=C2\Sc3cc(C)ccc3N2C)s/c1=C\c1scc[n+]1CCc1ccccc1C(F)(F)F [JG-378]
[8]
  IC50: 0.14 ± 0.02 µM
[10]; [12]
  IC50: 0.87 ± 0.03 µM
[3]; [14]
  IC50: 0.13 ± 0.01 µM

## CCn1c(=O)/c(=C2\Sc3cc(F)ccc3N2C)s/c1=C\c1scc[n+]1Cc1ccccc1C(=O)O [JG-315]
[8]
  IC50: > 20 µM
[10]; [12]
  IC50: > 10 µM
[3]; [14]
  IC50: > 20 µM

## CCn1c(=O)/c(=C2\Sc3ccc(C)cc3N2C)s/c1=C\c1scc[n+]1Cc1ccccc1SC(F)(F)F [JG-363]
[8]
  IC50: 0.084 ± 0.012 µM
[10]; [12]
  IC50: 2.1 ± 0.1 µM
[3]; [14]
  IC50: 0.067 ± 0.005 µM

## CCn1c(=O)/c(=C2\Sc3cc(F)ccc3N2C)s/c1=C\c1scc[n+]1Cc1nc(C)sc1C [JG-275]
[8]
  IC50: 0.3 ± 0.03 µM
[10]; [12]
  IC50: 1.6 ± 0.1 µM
[3]; [14]
  IC50: 0.27 ± 0.03 µM
